The values that follow come from patent US20170234860A1, “SEQUENCE AND CHIRAL SELECTIVITY OF DNA-DRUG INTERACTIONS REVEALED BY FORCE SPECTROSCOPY” (UNIVERSITY OF HOUSTON SYSTEM, priority 2014, published 2017).

Assay [1] has as its system DNA duplex 5′-CCC GGG TTT CCC-3′ / 3′-GGG CCC AAT GGG-5′ containing a T-T pair. The assay is described as follows: FIRMS binding force of the T-Hg-T system (DNA duplex with T-T pair). As for the experimental part: (§1) Some embodiments of the method of using a differential binding force to quantify the efficiency of a drug molecule to a receptor comprises a process wherein one strand of the DNA duplex is immobilized on a surface, while the other is labeled with a magnetic particle. The binding forces of the DNA duplex are measured in the absence and presence of the drug molecule, denoted as F1 and F2, respectively. The differential binding force, F2-F1, characterizes the influence of the drug-DNA binding on the stability of the DNA. The binding forces are obtained using the FIRMS technique, depicted in FIG. 1.
Magnetic particles M280 were used to label one strand of the DNA duplexes as previously characterized.^16] After initial magnetization by a permanent magnet, the magnetic signal of the particles were detected by an atomic magnetometer, with a sensitivity of 200 fT/(Hz)^1/2. Sample wells (4×2×1 mm^3) with a biotin-coated bottom surface were used to immobilize the other strand of the DNA duplexes. Mechanical forces were applied using a centrifuge (Eppendorf 5417R).
The sample well, with dimensions of 4×2×1 mm^3 (L×W×D), was coated with biotin on the bottom surface. An aqueous solution of 0.625 mg/mL streptavidin was loaded into the sample well and incubated for 1 hr. Then the sample well was rinsed three times with a buffer solution as described below. […]

The subject of assay [2] is DNA duplex 5′-CGCGAAAAACGCG-3′. The assay can be described thus: FIRMS binding force of groove-binding drugs with DNA. The settings on record: for binding force of DNA with drug: DNA alone 59 pN. How it is done: as §1
The method of differential binding force can also be used to quantify a different binding mode of DNA-drug interactions. We chose two groove-binding drugs, netropsin and berenil. The groove-binding interaction is different from the intercalation interaction of daunomycin and THP. Shown in FIG. 6 are the binding forces of DNA alone, DNA with netropsin, and DNA with berenil, with values of 59, 63, and 73 pN, respectively. The DNA sequence was 5′-CGCGAAAAACGCG-3′ (SEQ. 5). The binding forces yield differential binding force of 4 pN for netropsin and 14 pN for berenil.

Assay [3] deals with DNA2 (5′-CCC GGG TTT CCC-3′ and its complementary strand). The assay can be described thus: FIRMS binding force of drug with DNA2. As for the experimental part: as §1
(§2) Magnetic particles M280 were used to label one strand of the DNA duplexes as previously characterized.^16] After initial magnetization by a permanent magnet, the magnetic signal of the particles were detected by an atomic magnetometer, with a sensitivity of 200 fT/(Hz)^1/2. Sample wells (4×2×1 mm^3) with a biotin-coated bottom surface were used to immobilize the other strand of the DNA duplexes. […]
(§3) DNA Intercalation is widely considered as its binding mode, although minor groove binding has also been discussed,^[24] however, the specificity has previously not been quantified by binding strength. […] As a control experiment the differential binding force of daunomycin with a different DNA duplex, DNA2, with sequence 5′-CCC GGG TTT CCC-3′ and its complementary strand was measured.

In assay [4] the test system is DNA1 (5′-CCC AAT CGA CCC-3′ with complementary strand 5′-GGG TCG ATT GGG-3′). The assay can be described thus: FIRMS binding force of drug with DNA1. As for the experimental part:
as §1, §2, §3

For `[Hg+2]` [Hg], the “binding force of the DNA duplex upon binding” value in assay [1] (DNA alone 40 pN, HEPES buffer pH 7.6) worked out at 54 pN. Besides, the “differential binding force (F2-F1)” value in assay [1] (increase over DNA alone) came out at 14 pN.
Turning to `CC(=O)NCC(=O)O.CC(=O)NCC(=O)O.N=C(N)c1ccc(N=NNc2ccc(C(=N)N)cc2)cc1` [berenil], in assay [2], the “differential binding force (F2-F1)” value was 14 pN and the “binding force of DNA with drug” value is 73 pN.
On to `COc1cccc2c1C(=O)c1c(O)c3c(c(O)c1C2=O)C[C@@](O)(C(C)=O)C[C@@H]3O[C@H]1C[C@H](N)[C@H](O)[C@H](C)O1` [daunomycin], for which the entries for the “differential binding force (F2-F1)” value in assay [3] and in assay [4] were “no significant force difference” and 12 pN, respectively. In addition, the “binding force of DNA2 with drug” value in assay [3] (DNA alone 51 pN) amounted to 52 pN. In assay [4] (DNA alone 45 pN (daunomycin, TE buffer) or 44 pN (THP, BPES buffer)), the “binding force of DNA1 with drug” value was 57 pN.
For the compound `Cn1cc(NC(=O)c2cc(NC(=O)CN=C(N)N)cn2C)cc1C(=O)NCCC(=N)N` [netropsin], in assay [2], the “differential binding force (F2-F1)” value was 4 pN and the “binding force of DNA with drug” value is given as 63 pN.
